The values that follow come from BindingDB's records for patent US9670214 (Dana-Farber Cancer Institute, 2017).

In assay [1] the target is Non-specific protein-tyrosine kinase [T818I] (Homo sapiens, UniProt A9UEZ6, T818I). Briefly: Kinase Assay. As to conditions: pH 7.5. From the text: (§1) Recombinant abl was expressed in Sf9 insect cells and purified as described above. Bcr-abl immune complexes were obtained with Ab-3 anti-abl monoclonal antibody (Oncogene Science) from Ba/F3.p210 lysates as previously described. […] (Calbiochem buffer and protocol). The reaction was stopped by addition of Laemmli buffer and the proteins were resolved by SDS-PAGE in a 4-20% gel. The phosphoproteins were visualized by autoradiography and the autophosphorylation quantitated using a phosphoimager (STORM, Molecular Devices).

The target of assay [2] is Non-specific protein-tyrosine kinase (Homo sapiens, UniProt A9UEZ6). The assay is described as follows: Kinase Assay. As to conditions: pH 7.5.
Excerpt: as §1

Chain of Non-specific protein-tyrosine kinase (A9UEZ6 whole entry): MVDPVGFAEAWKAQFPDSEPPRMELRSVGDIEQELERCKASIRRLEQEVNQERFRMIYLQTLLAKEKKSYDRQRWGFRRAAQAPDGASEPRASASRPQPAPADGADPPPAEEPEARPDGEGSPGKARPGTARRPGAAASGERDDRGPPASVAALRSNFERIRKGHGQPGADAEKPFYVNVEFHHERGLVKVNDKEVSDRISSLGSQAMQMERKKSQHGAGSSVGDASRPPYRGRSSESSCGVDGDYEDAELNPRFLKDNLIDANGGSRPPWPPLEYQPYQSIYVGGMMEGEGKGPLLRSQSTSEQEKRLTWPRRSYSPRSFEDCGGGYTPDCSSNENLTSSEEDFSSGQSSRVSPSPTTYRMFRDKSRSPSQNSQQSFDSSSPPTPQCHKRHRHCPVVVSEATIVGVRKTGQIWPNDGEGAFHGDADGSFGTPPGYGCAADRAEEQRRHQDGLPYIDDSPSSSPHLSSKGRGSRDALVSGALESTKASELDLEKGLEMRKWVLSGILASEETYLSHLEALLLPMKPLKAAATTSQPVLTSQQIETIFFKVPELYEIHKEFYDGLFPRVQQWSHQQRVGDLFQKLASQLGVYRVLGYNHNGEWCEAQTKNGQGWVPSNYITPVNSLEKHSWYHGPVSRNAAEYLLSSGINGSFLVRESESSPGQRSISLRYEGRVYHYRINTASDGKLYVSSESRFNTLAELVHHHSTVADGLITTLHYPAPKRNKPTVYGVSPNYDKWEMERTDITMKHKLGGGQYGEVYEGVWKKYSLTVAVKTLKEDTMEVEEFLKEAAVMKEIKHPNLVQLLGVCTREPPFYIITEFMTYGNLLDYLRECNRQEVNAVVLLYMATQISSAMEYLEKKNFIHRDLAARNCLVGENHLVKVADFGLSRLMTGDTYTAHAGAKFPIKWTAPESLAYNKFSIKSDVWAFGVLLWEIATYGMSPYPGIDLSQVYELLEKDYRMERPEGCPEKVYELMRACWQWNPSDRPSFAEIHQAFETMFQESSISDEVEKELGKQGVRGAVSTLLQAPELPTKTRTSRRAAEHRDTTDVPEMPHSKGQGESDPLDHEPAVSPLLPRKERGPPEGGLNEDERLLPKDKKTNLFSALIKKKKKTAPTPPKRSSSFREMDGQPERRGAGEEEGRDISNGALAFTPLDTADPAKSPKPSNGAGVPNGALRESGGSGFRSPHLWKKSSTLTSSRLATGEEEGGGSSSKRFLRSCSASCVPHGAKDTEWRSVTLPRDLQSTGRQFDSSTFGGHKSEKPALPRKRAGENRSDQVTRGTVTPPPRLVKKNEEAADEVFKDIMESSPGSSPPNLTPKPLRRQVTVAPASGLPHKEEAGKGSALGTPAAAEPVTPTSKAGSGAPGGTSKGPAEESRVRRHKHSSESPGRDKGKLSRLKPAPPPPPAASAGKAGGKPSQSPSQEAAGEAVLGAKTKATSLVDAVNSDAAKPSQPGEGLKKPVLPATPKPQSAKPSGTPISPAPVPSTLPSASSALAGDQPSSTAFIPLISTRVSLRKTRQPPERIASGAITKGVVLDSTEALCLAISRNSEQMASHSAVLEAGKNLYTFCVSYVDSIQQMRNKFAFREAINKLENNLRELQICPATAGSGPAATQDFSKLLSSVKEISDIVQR
Chain of Non-specific protein-tyrosine kinase [T818I] (A9UEZ6 as listed by the source T818I): as the sequence (A9UEZ6 whole entry) above, with T818I counted along it

Turning to `FC(F)(F)Oc1ccc(Nc2ncnc3c2cnn3Cc2cccnc2)cc1` [US9670214, TABLE 10.30], the IC50 (in general, the concentration needed to halve the response being measured) in assay [1] is 600 nM; in assay [2] it was 30 nM.
